Entries after “also recorded” stand apart in the source; their conditions may differ. Where a name gives a salt, the structure may show the parent alone.
Test system: LeptoM cells
Experiment: Iron Assay, chelation assay in vitro (intracellular iron)
Assay type: cell-based, human
Conditions: PC9-LeptoM and MDA231-LeptoM cells; 0, 1, 10, 100 μM; in words
From the text: FIG. 16A-16L. Iron chelator treatment reduces CSF iron. (A) Experimental scheme. Mice were inoculated with 2×10^3 cells intrathecally on day 0. Treatment with either vehicle, DFO, or D-pen was commenced on either day 1 or day 7 and continued every third day for a total of 7 doses. (B) Chelators delivered intrathecally. DFO, Deferoxamine. D-Pen, D-Penicillamine. (C-F) Intracellular iron (C and E) and viability (D and F) of PC9-LeptoM cells and MDA231-LeptoM cells after treatment with chelators in different concentrations (0 μM, 1 μM, 10 μM and 100 μM). n=3-4 per group in each of two independent experiments. * indicates p<0.05, ** indicates p<0.01, ***indicates p<0.001, **** indicates p<0.0001 (unpaired t test). Data represent mean±SEM. (G) Growth of PC9-LeptoM tumor after treatment indicated in (A). Left: in vivo BLI imaging in day 28 post-inoculation. n=8-10 per group in each of two independent experiments. Right: Representative BLI images. **** indicates p<0.0001. Data represent mean±SEM. (H) Kaplan-Meier survival curve from (C) and (E). p<0.0001. (I and J) Total iron concentration measured in CSF samples of mice with treatment of chelators in PC9-LeptoM Model (I) in MDA231-LeptoM model (J). […]
Iron Assay. […] The Iron Assay Kit (Sigma-Aldrich, MAK025) was used to quantify total iron in the intracellular contents and culture supernatant following the manufacturer's protocols. […]

CC(=O)N(O)CCCCCNC(=O)CCC(=O)N(O)CCCCCNC(=O)CCC(=O)N(O)CCCCCN [DFO, Deferoxamine mesylate]
iron levels within the LeptoM cells: substantially suppressed; also recorded: dramatically suppressed

From US20240050385A1, “METHODS OF TREATING LEPTOMENINGEAL METASTASIS” (MEMORIAL SLOAN-KETTERING CANCER CENTER, priority 2020, published 2024)
